Measurements as given in patent US11549950B2, “Cryptic metabolites and method for activating silent biosynthetic gene clusters in diverse microorganisms” (The Trustees of Princeton University, priority 2017, dated 2023).

Legend:
Assay type in all cases: cell-based
[1] = tested on: Amycolatopsis keratiniphila NRRL B24117; experiment: HiTES-IMS elicitor screen and validation, cryptic metabolites of A. keratiniphila; settings: for induction of compound with m/z 1286 / induction of compound with m/z 1425 / elicitation of keratinimicin A (m/z 1811) synthesis: HiTES-IMS, 502-member natural products library; for elicitation of keratinimicin A and keratinicyclin B, follow-up experiments: 7.8 μM vincamine, 2 μM Dhe, HR-MS
Method: (§1) In other examples, freshly-collected spores of S. canus or A. keratiniphila (˜10^7) were transferred to 50 mL YEME medium (3% (w/v) yeast extract, 5% peptone, 3% malt extract, 1% glucose, 34% sucrose, and 5 mM MgCl2.6H2O) in a 250 mL Erlenmeyer flask fitted with a stainless-steel spring and cultured at 30° C./250 rpm for 3 days. Mycelia were then collected by centrifugation (10 min, 3000 g, RT) and diluted into 300 mL of R4 medium to give a final concentration of 0.05% (w/v). R4 medium^1 consisted of 0.5% (w/v) glucose, 0.1% yeast extract, 0.5% MgCl2.6H2O, 0.2% CaCl2.2H2O, 0.15% proline, 0.118% valine, 0.28% TES, 50 mg/L casamino acid, 100 mg/L K2SO4, and 1× trace element solution, which contains 40 mg/L ZnCl2, 200 mg/L FeCl3.6H2O, 10 mg/L CuCl2.2H2O, 10 mg/L MnCl2.4H2O, 10 mg/L Na2B4O7.10H2O, and 10 mg/L (NH4)6Mo7O24.4H2O). Subsequently 300 μL were dispensed into six deep-well 96-well plates using a MultiFlo Microplate Dispenser. The wells were supplemented with candidate elicitors from the same 502-member natural products library used above with the aid of a CyBi-Well automated liquid transfer robot. Each well received 0.85 μL of an elicitor (from a stock concentration of 10 mM). The plates were sealed with air-permeable membranes and grown at 30° C./250 rpm. After 5 days, the samples were desalted as described above for P. protegens.
(§2) In one example, a laser ablation electrospray ionization (LAESI) DP1000 system (Protea Bioscience) coupled to a LTQ XL mass spectrometer (Thermo) was used for IMS analysis. The extension tube connecting the two instruments was kept at 130° C. with an external heater and the sample stage was kept at 10° C. during analysis. Sheath gas flow was set to 2.0 L/h. Eighty laser pulses were applied to each well to ablate samples using an 80% laser energy setting (˜850 μJ) and a 10 Hz frequency. A solution of 2:1 MeCN/water with 0.1% acetic acid (v/v) was supplied as the electrospray solution by a syringe pump running at a flow rate of 1 μL/min. The emitter was connected to high voltage power operating at +4000V or +4500V in positive ion detection mode. All data were visualized in ProteaPlot software.
In one example, after data collection, the signals observed in each well were extracted using GMSU-LAESI software (Gubbs, Inc), which gave all m/z values and the corresponding intensities per well (i.e. per elicitor). The data were binned in 1 m/z units for 3D-plotting. Signals with an intensity lower than a set threshold were not included in the 3D plots. The data were plotted in MatLab using the bar3 function. The component 2D plots were extracted from the corresponding 3D data in MatLab and plotted in Excel. The 2D plots were normalized to the highest intensity peak. Each signal was correlated with an elicitor.
Application of HiTES-IMS to Rare Actinomycetes. The disclosed approach was also applied to rare actinomycetes, a group of bacteria that account for some structurally fascinating and functionally potent metabolites, including the antibiotic of-last-resort vancomycin as well as the anticancer agent calicheamicin. Rare actinomycetes are an ideal test case for HiTES-IMS because in addition to their abundance of silent BGCs, they are difficult to manipulate genetically, thus all but precluding transcriptional reporter assays. Amycolatopsis keratiniphila NRRL B24117 were chosen as a test case. Its genome has not been sequenced, but efforts to find further BGCs that encode glycopeptide antibiotics (GPAs) using PCR had shown that it contains a vancomycin-like BGC, though a product has not yet been reported. A. keratiniphila was subjected to HiTES-IMS and obtained the metabolome shown, focusing on the mass range of typical GPAs (FIG. 9A). […] Additionally, a compound with m/z 1425 was induced by similar elicitors, including galangin and evodiamine (FIG. 10B). […]

[2] = tested on: Amycolaptopsis sp. B-24117; experiment: LAESI-MS elicitor screen (FIG. 20); settings: concentration of 30 μM each
Method: In another example, to commence a screen, Amycolaptopsis sp. B-24117 spore stocks were used to inoculate 100 mL of R4 medium in a 500 mL Erlenmeyer flask (approx. 10^6 spores). These were grown overnight and then dispensed into 5×95 CORNING® COSTAR® 96 well cell culture plates using a BioTek MULTIFLO™ microplate dispenser. 150 μL was dispensed into each well, which were then supplemented with each 1 μL from the Natural Products small molecule library (Enzo Scientific). The plates were grown again at 30° C. and 250 rpm for 4 days before being imaged using a Laser Ablation Electrospray Mass Spectrometer (LAESI-MS), which consisted of a Protea Biosciences LAESI® DP-1000 module coupled to a THERMO SCIENTIFIC™ LTQ mass spectrometer. Imaging of each plate was conducted as per manufacturer instructions using 1:1 MeCN/water at a flow rate of 1 μL/min to ablate the samples into the mass spectrometer. The spectrum was collected for 8 seconds per well. The data were then analyzed using ProteaPlot software, searching for mass ions that were induced by elicitors and absent in untreated samples. Referring to FIG. 20, this led to identification of a mass ion (reference 230, m/s 1810, keratinimicin A).

[3] = tested on: Streptomyces canus NRRL B3980; experiment: HiTES-IMS elicitor screen and flask validation, cryptic metabolites of S. canus
Method: as §1, §2
In one example, after data collection, the signals observed in each well were extracted using GMSU-LAESI software (Gubbs, Inc), which gave all m/z values and the corresponding intensities per well (i.e. per elicitor). The data were binned in 1 m/z units for 3D-plotting. […]
Application of HiTES-IMS to Streptomycetes. […] Three clusters of peaks, representing three compound families appeared to be elicited: compounds were detected with m/z ranging from 1260-1295, which further analysis identified as the amphomycins. […] A second set of induced compounds was also detected with m/z ranging from 1220-1245. […]

[4] = tested on: Pseudomonas protegens Pf-5; experiment: HiTES-IMS elicitor screen and flask validation, orfamide production; settings: for elicitation of orfamide production: HiTES-IMS, 502-member natural products library, 96-well plates
Method: In one example, P. protegens was streaked out onto an LB-agar plate from frozen culture stocks and grown at 30° C. overnight. Colonies were used to inoculate 5 mL of LB in a 14 mL sterile culture tube, which was cultured 12-13 h at 30° C./250 rpm. The overnight culture was then used to inoculate 550 mL LB in a sterile Erlenmeyer flask to an initial optical density at 600 nm (OD600 nm) of 0.01. The culture was distributed into six sterile, deep-well 96-well plates (0.9 mL per well) using a MultiFlo Microplate Dispenser (BioTek). Subsequently, elicitors were added from a commercially-available 502-member natural products library (Enzo Scientific, cat #BML-2865) using a CyBi-Well automated liquid transfer robot (CyBio). Each well received 2.5 μL of an elicitor (from a stock concentration of 10 mM). The plates were sealed with air-permeable membranes and grown at 25° C./200 rpm. After 44 h, the plates were spun down, supernatants loaded onto a 96-well Strata C8-resin (Phenomenex), and the material eluted with 600 μL of 50% and 600 μL 100% MeCN into fresh 96 well plates. The eluates were then dried in a speedvac and resuspended in 30 μL of 40% MeCN (in water).
In one example, a laser ablation electrospray ionization (LAESI) DP1000 system (Protea Bioscience) coupled to a LTQ XL mass spectrometer (Thermo) was used for IMS analysis. The extension tube connecting the two instruments was kept at 130° C. with an external heater and the sample stage was kept at 10° C. during analysis. Sheath gas flow was set to 2.0 L/h. […]
As another example, Orfamides are lowly-expressed metabolites isolated from Pseudomonas protegens Pf-5 (hereafter P. protegens). […] The resulting metabolomes were analyzed using laser ablation-coupled electrospray ionization MS (LAESI-MS), an emerging method in which a mid-IR laser beam generates an ablation plume of metabolites that are ionized by an electrospray and introduced into the mass spectrometer. […] No signals were detected below m/z 1250 and above m/z 1650. […]

[5] = HiTES-IMS, 502-member natural products library

CC[C@H]1[C@@H]2C[C@H]3[C@@H]4N(C)c5ccccc5[C@]45C[C@@H]([C@H]2[C@H]5O)N3[C@@H]1O [ajmaline]
induction of compound with m/z 1286 [1]: induced

O=C1c2ccccc2-n2c1nc1ccccc1c2=O [tryptanthrin]
elicitation of mass ion m/s 1810, keratinimicin A [2]: best elicitors

C=C[C@H]1C[N@@]2CC[C@H]1C[C@H]2[C@H](O)c1ccnc2ccc(OC)cc12 [quinine]
elicitation of amphomycins (m/z 1260-1295) [3, 5]: best elicitors

evodiamine
induction of compound with m/z 1286 [1]: induced
induction of compound with m/z 1425 [1]: induced

CC(C)[C@@]1(NC(=O)[C@@H]2C[C@@H]3c4cccc5[nH]cc(c45)C[C@H]3N(C)C2)O[C@@]2(O)[C@@H]3CCCN3C(=O)[C@H](Cc3ccccc3)N2C1=O [dihydroergocristine]
elicitation of keratinimicin A and keratinicyclin B, follow-up experiments [1]: strong stimulatory activity
elicitation of keratinimicin A (m/z 1811) synthesis [1]: most effective elicitors
elicitation of mass ion m/s 1810, keratinimicin A [2]: best elicitors

O=c1c(O)c(-c2ccccc2)oc2cc(O)cc(O)c12 [galangin]
induction of compound with m/z 1286 [1]: induced
induction of compound with m/z 1425 [1]: induced

C[C@@]12CCc3occc3[C@H]1CC[C@@]13C[C@@H](CC[C@H]12)[C@@](O)(CO)C3 [cafestol]
elicitation of orfamide production [4]: Optimal production
induction of orfamide A ([4]; flask cultures, HPLC-MS, 22 μM): stimulatory activity was further confirmed

CC[C@]12CCCN3CCc4c(n(c5ccccc45)[C@@](O)(C(=O)OC)C1)[C@@H]32 [vincamine]
elicitation of keratinimicin A and keratinicyclin B, follow-up experiments [1]: strong stimulatory activity
elicitation of keratinimicin A (m/z 1811) synthesis [1]: most effective elicitors

O=c1c(O)c(-c2ccc(O)cc2O)oc2cc(O)cc(O)c12 [morin]
elicitation of amphomycins (m/z 1260-1295) [3, 5]: best elicitors

CCC1=C[C@@H]2CN(C1)Cc1c([nH]c3ccccc13)[C@@](C(=O)OC)(c1cc3c(cc1OC)N(C)[C@H]1[C@@](O)(C(=O)OC)[C@H](OC(C)=O)[C@]4(CC)C=CCN5CC[C@]31[C@@H]54)C2 [vinorelbine]
elicitation of orfamide production [4]: Optimal production

O=C1Cc2c([nH]c3ccc(Br)cc23)-c2ccccc2N1 [kenpaullone]
elicitation of canucin A (m/z 1579) synthesis [3, 5]: most effective elicitor
induction of canucin A and B ([3]; validation, flask cultures, 17 μM): strong induction
